# Reference: patent publication US4122184A, “Benzimidazole insecticides” (priority 1977, dated 1978)
# Legend:
# [1] = Acute dermal toxicity; format: in vivo; conditions: rabbit
# From the text: (§1) While the compounds of this invention resemble the organic phosphates in being toxic upon ingestion, they differ from the organic phosphates in having a low toxicity when applied to the skin. The following charts give the estimated acute oral and acute dermal toxicities of 2,6-bis(trifluoromethyl)-4-nitrobenzimidazole in several species of mammals.
# [2] = tested on: Buffalo Tree Hopper; test: Field trial (first summer), contact; format: in vivo; conditions: 125 ppm
# [3] = tested on: German Roach; test: Field trial (first summer), contact; format: in vivo; conditions: 500 ppm
# [4] = tested on: American Roach; test: Field trial (first summer), contact; format: in vivo; conditions: 500 ppm
# [5] = tested on: Tussock Moth; test: Field trial (first summer), contact; format: in vivo; conditions: 750 ppm
# [6] = tested on: Imported Cabbage Worm; test: Field trial, contact poison test; format: in vivo
# Outline: (§2)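 Read-out: mortality rating 0–9 (0 = 0-10 percent, 9 = 91-100 percent) at 24/48/72 h, averaged per concentration. Insects were sprayed on potted-in-water host plants using an atomizer at 10 psi, with dead insects caught on paper below.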
# [7] = tested on: Asparagus Beetles Larvae; test: Field trial, contact poison test; format: in vivo
# Outline: as §2
# [8] = tested on: Corn Earworm; test: Field trial, contact poison test; format: in vivo
# Outline: as §2
# [9] = tested on: Fall Webworm; test: Field trial, contact poison test; format: in vivo
# Outline: as §2
# [10] = Acute oral toxicity; conditions: in vivo, read-out: Est. LD50
# From the text: as §1
# [11] = tested on: Variegated Cutworm; test: Field trial (first summer), stomach; format: in vivo; conditions: 500 ppm
# [12] = tested on: Cabbage Looper; test: Field trial (first summer), stomach; format: in vivo; conditions: 500 ppm
structure (smiles),measurement,setting,value
"O=[N+]([O-])c1cc(C(F)(F)F)cc2nc(C(F)(F)F)[nH]c12 [A, 2,6-bis(trifluoromethyl)-4-nitrobenzimidazole]",LD50,"[1]; in vivo, topical or ocular, male, read-out: Est. LD50",> 500 mg/kg
same,Est. LD50,[1]; female,> 500 mg/kg
same,insect mortality rating,[2],9 (91-100 percent mortality)
same,insect mortality rating,[3],8
same,insect mortality rating,[4],9 (91-100 percent mortality)
same,insect mortality rating,[5],9 (91-100 percent mortality)
same,average mortality rating,[6]; 125 ppm,3
same,average mortality rating,[6]; 250 ppm,4
same,average mortality rating,[6]; 500 ppm,3
same,average mortality rating,[6]; 750 ppm,7
same,average mortality rating,[7]; 10 ppm,8
same,average mortality rating,[7]; 25 ppm,8
same,average mortality rating,[7]; 50 ppm,9 (91-100 percent mortality)
same,average mortality rating,[8]; 62.5 ppm,0 (0-10 percent)
same,average mortality rating,[8]; 125 ppm,0 (0-10 percent)
same,average mortality rating,[8]; 250 ppm,0 (0-10 percent)
same,average mortality rating,[8]; 500 ppm,0 (0-10 percent)
same,average mortality rating,[8]; 750 ppm,1
same,average mortality rating,[9]; 125 ppm,3
same,average mortality rating,[9]; 250 ppm,5
same,average mortality rating,[9]; 500 ppm,3
same,average mortality rating,[9]; 750 ppm,9 (91-100 percent mortality)
same,LD50,"[10]; guinea pig, male",15 mg/kg
same,LD50,"[10]; mouse, female",27 mg/kg
same,LD50,"[10]; rat, female",19 to 22 mg/kg
same,LD50,"[10]; rat, male",16 to 20 mg/kg
same,insect mortality rating,[11],5
same,insect mortality rating,[12],9 (91-100 percent mortality)
